Earlier results, collected in US7261867B1 (Eastman Kodak Company, priority 2006, dated 2007).

Experiments:
Settings in all cases: 0.5% concentration in polymethylmethacrylate bone cement
[1] = system: Staphylococcus aureus
[2] = system: Escherichia coli
[3] = system: Pseudomonas aeruginosa

Measured: inhibition of bacterial growth

silver oxide
significantly inhibit: [1] | [2] | [3]

[Cl][Ag] [Silver chloride]
significantly inhibit: [1] | [2] | [3]

O=S(=O)([O-])[O-].[Ag+].[Ag+] [silver sulphate]
significantly inhibit: [1] | [2] | [3]
